Measurements as given in patent US12310946B2, “Pharmaceutical composition for oral administration of edaravone and method of administering same” (MITSUBISHI TANABE PHARMA CORPORATION, priority 2020, dated 2025).

Assays:
[1] = Clinical study #3: PK of edaravone oral formulation (formula #3), fasted vs after high-fat, standard or light meal; analysis of variance; assay type: in vivo, human; details: 105 mg oral; for Cmax Max: in ng/mL; for AUC(0-inf) / Cmax / Tmax / half-life: male, human, plasma, po, 105 mg
Method: Effects of meal consumption before administration of the edaravone oral formulation on the pharmacokinetics of edaravone were evaluated. Specifically, clinical studies #1, #2, and #3 described below were conducted on separate days in Japanese healthy adult male subjects. In each of clinical studies #1, #2, and #3, one dose each of edaravone oral formulations (edaravone suspensions) of formulas #1, #2, and #3 shown in Table 1 below were used respectively and administered orally once during the study period. For each clinical study, a reference study was conducted (reference example), in which the edaravone oral formulation was administered in fasted conditions as described below, and in each clinical study and the corresponding reference study, the edaravone oral formulation was each administered to the same subjects.
For the high-fat meal, a meal with total calories per meal of 800 to 1000 kilocalories and calorie intake from lipid of 50% was used. For the standard meal, a meal with total calories per meal of 400 to 500 kilocalories and calorie intake from lipid of 25% was used. For the light meal, a liquid-type nutritional supplement with total calories per meal of 250 kilocalories (enteral nutritional supplement: Ensure Liquid (trade name)) was used.
As examples, the edaravone oral formulation (formula #3) was administered orally to each subject of 8 hours after high-fat meal consumption, 4 hours after standard meal consumption, and 2 hours after light meal consumption. Blood samples were each collected before the administration, and 5 minutes, 15 minutes, 30 minutes, 45 minutes, 1 hour, 1.5 hours, 2 hours, 4 hours, 6 hours, 8 hours, 10 hours, 12 hours, 24 hours, 36 hours, and 48 hours after the administration, and the concentrations of unchanged edaravone in plasma were measured. In addition, as a comparative example, the edaravone oral formulation was administered orally to the same subjects 2 hours after standard meal consumption, blood samples were collected, and the concentrations of unchanged edaravone in plasma were measured in the same manner. On the other hand, as a reference example, the edaravone oral formulation was administered orally to the same subjects in fasted conditions, blood samples were collected, and the concentrations of unchanged edaravone in plasma were measured in the same manner. For the administration in fasted conditions, the edaravone oral formulation was administered orally after a lapse of 10 hours or longer from the previous meal consumption. None of the subjects consumed a next meal until the blood sample collection 4 hours after the administration was completed.
That is, from the results of the edaravone PK parameters, an analysis of variance was conducted on the AUC and Cmax in consideration of the meal condition. The spaghetti plots in FIG. 1 show results from individual subjects, in which results from the same subjects are connected with lines between results in the administration in fasted conditions and results in the postprandial administration.

[2] = Clinical study #11: PK of edaravone oral formulation (formula #3) via nasopharyngeal gastric tube vs oral in healthy adults; assay type: in vivo, human; details: for AUC(0-inf) / Cmax / AUC / half-life / Tmax: human, plasma; for AUC(0-inf) / Cmax: 105 mg; for Tmax: read-out: tmax (median)
Method: Pharmacokinetics of edaravone in administration of the edaravone oral formulation via a PEG tube was evaluated in 36 healthy adults. Specifically, performing gastrostomy in healthy adults is difficult, thus a nasopharyngeal gastric tube (NG tube), which allows the administration into the stomach via a tube in the same manner, was used as a model of administration via a percutaneous endoscopic gastrostomy tube (PEG tube), and a clinical study #11 described below was conducted.
The edaravone oral formulation (#3) was administered via a nasopharyngeal gastric tube (NG tube) to the subject group in fasted conditions after a lapse of 10 hours or longer from consumption of a meal. In the administration via an NG tube, first, 100 mL of lukewarm water was injected through an NG tube 1 hour before the administration of the edaravone oral formulation, and 10 mL of lukewarm water was injected through an NG tube immediately before the administration. Then, the edaravone oral formulation was administered to the NG tube, and further 30 mL of water was injected through the NG tube to wash in the edaravone oral formulation. Blood samples were each collected before the administration, and 5 minutes, 15 minutes, 30 minutes, 45 minutes, 1 hour, 1.5 hours, 2 hours, 4 hours, 6 hours, 8 hours, 10 hours, 12 hours, 24 hours, 36 hours, and 48 hours after the administration, and the concentrations of unchanged edaravone in plasma were measured. As a reference example, the same edaravone oral formulation was administered orally to the same subjects, blood samples were collected, and the concentrations of unchanged edaravone in plasma were measured in the same manner. For the oral administration, the edaravone oral formulation was administered orally after a lapse of 10 hours or longer from the previous meal consumption. None of the subjects consumed a next meal until the blood sample collection 4 hours after the administration was completed. In addition, results of an analysis of variance conducted on the AUC and Cmax in consideration of the meal condition are shown in Table 14 below.

[3] = 2 h after standard meal vs fasted
[4] = 4 h after standard meal vs fasted
[5] = 8 h after high-fat meal vs fasted
[6] = formula #3, 2 h after light meal, mean (n = 16)
[7] = formula #3, 2 h after standard meal, mean (n = 16)
[8] = formula #3, 4 h after standard meal, mean (n = 16)
[9] = formula #3, 8 h after high-fat meal, mean (n = 16)
[10] = formula #3, fasted, mean (n = 16)
[11] = Nasopharyngeal gastric tube / Oral, least squares mean ratio
[12] = other: nasopharyngeal gastric tube (NG tube), formula #3 (105 mg), Nasopharyngeal gastric tube, fasted (N = 36), mean
[13] = formula #3 (105 mg), Oral, fasted (N = 36), mean

With `CC1=NN(c2ccccc2)C(=O)C1` [Edaravone, 3-methyl-1-phenyl-2-pyrazolin-5-one] as the compound, how does the “change in the AUC in comparison with fasted” value (“change in the AUC” for short) ([1]; 2 h after light meal vs fasted) read?
The value was “no decrease and →”.

What about the “change in the Cmax in comparison with fasted” value (from here on “change in the Cmax”) ([1]; 2 h after light meal vs fasted) of the same compound?
The value was “no decrease and →”.

And the “decrease in the AUC in comparison with fasted” value [1, 3]?
The value was “(21% ↓)”.

And the “decrease in the Cmax in comparison with fasted” value [1, 3]?
The value was “(45% ↓)”.

And the Cmax Min ([1]; 2 hours after light meal)?
The Cmax Min was 388 ng/mL.

And the “Cmax Max” value ([1]; 2 hours after light meal)?
The value was 3237.

What about the “change in the AUC” value [1, 4] of the same compound?
The value was “no decrease and →”.

And the “change in the Cmax” value [1, 4]?
The value was “no decrease and →”.

And the Cmax Min ([1]; 4 hours after standard meal)?
The Cmax Min was 642 ng/mL.

What about the “Cmax Max” value ([1]; 4 hours after standard meal) of the same compound?
The value was 4286.

And the “change in the AUC” value [1, 5]?
Its value is “no decrease and →”.

What about the “change in the Cmax” value [1, 5] of the same compound?
The value was “no decrease and →”.

What about the Cmax Min ([1]; 8 hours after high-fat meal) of the same compound?
The Cmax Min was 595 ng/mL.

What about the “Cmax Max” value ([1]; 8 hours after high-fat meal) of the same compound?
Its value is 5270.

What about the Cmax Min ([1]; fasted) of the same compound?
The Cmax Min was 797 ng/mL.

What about the “Cmax Max” value ([1]; fasted) of the same compound?
The value was 4816.

And the AUC(0-inf) ([1]; 2 hours after light meal, analysis of variance, read-out: AUC0-∞ Least-square mean)?
Its AUC(0-inf) is 1880 ng·h/mL.

What about the Cmax ([1]; 2 hours after light meal, analysis of variance, read-out: Cmax Least-square mean) of the same compound?
The Cmax was 1660 ng/mL.

What about the Cmax ([1]; 2 hours after light meal, read-out: Cmax Median) of the same compound?
Its Cmax is 1960 ng/mL.

What about the AUC(0-inf) ([1]; 4 hours after standard meal, analysis of variance, read-out: AUC0-∞ Least-square mean) of the same compound?
The AUC(0-inf) was 1990 ng·h/mL.

What about the Cmax ([1]; 4 hours after standard meal, analysis of variance, read-out: Cmax Least-square mean) of the same compound?
Its Cmax is 1760 ng/mL.

What about the Cmax ([1]; 4 hours after standard meal, read-out: Cmax Median) of the same compound?
Its Cmax is 1740 ng/mL.

What about the AUC(0-inf) ([1]; 8 hours after high-fat meal, analysis of variance, read-out: AUC0-∞ Least-square mean) of the same compound?
The AUC(0-inf) was 2120 ng·h/mL.

What about the Cmax ([1]; 8 hours after high-fat meal, analysis of variance, read-out: Cmax Least-square mean) of the same compound?
The Cmax was 2190 ng/mL.

And the Cmax ([1]; 8 hours after high-fat meal, read-out: Cmax Median)?
The Cmax was 2240 ng/mL.

What about the Cmax ([1]; fasted and each postprandial administration alike, read-out: Cmax, median of values of each subject) of the same compound?
Its Cmax is roughly 2000 ng/mL.

And the Cmax ([1]; fasted and each postprandial administration alike, read-out: Cmax, range of values of each subject)?
Its Cmax is 1000 to 5000 ng/mL.

And the AUC(0-inf) ([1]; fasted, analysis of variance, read-out: AUC0-∞ Least-square mean)?
The AUC(0-inf) was 2070 ng·h/mL.

What about the Cmax ([1]; fasted, analysis of variance, read-out: Cmax Least-square mean) of the same compound?
The Cmax was 2020 ng/mL.

And the Cmax ([1]; fasted, read-out: Cmax Median)?
The Cmax was 1990 ng/mL.

What about the Tmax [1, 6] of the same compound?
Its Tmax is 0.41 h.

And the half-life [1, 6]?
The half-life was 7.31 h.

What about the AUC(0-inf) ([1]; formula #3, 2 h after light meal, mean (n = 16), read-out: AUC0-∞) of the same compound?
The AUC(0-inf) was 1960 ng·h/mL.

And the Cmax ([1]; formula #3, 2 h after light meal, mean (n = 16), read-out: Cmax)?
Its Cmax is 1900 ng/mL.

And the Tmax [1, 7]?
The Tmax was 0.63 h.

What about the half-life [1, 7] of the same compound?
Its half-life is 11.2 h.

And the AUC(0-inf) ([1]; formula #3, 2 h after standard meal, mean (n = 16), read-out: AUC0-∞)?
The AUC(0-inf) was 1720 ng·h/mL.

What about the Cmax ([1]; formula #3, 2 h after standard meal, mean (n = 16), read-out: Cmax) of the same compound?
The Cmax was 1280 ng/mL.

What about the Tmax [1, 8] of the same compound?
The Tmax was 0.44 h.

And the half-life [1, 8]?
Its half-life is 9.05 h.

What about the AUC(0-inf) ([1]; formula #3, 4 h after standard meal, mean (n = 16), read-out: AUC0-∞) of the same compound?
Its AUC(0-inf) is 2070 ng·h/mL.

And the Cmax ([1]; formula #3, 4 h after standard meal, mean (n = 16), read-out: Cmax)?
Its Cmax is 2020 ng/mL.

What about the Tmax [1, 9] of the same compound?
Its Tmax is 0.36 h.

What about the half-life [1, 9] of the same compound?
Its half-life is 7.38 h.

What about the AUC(0-inf) ([1]; formula #3, 8 h after high-fat meal, mean (n = 16), read-out: AUC0-∞) of the same compound?
The AUC(0-inf) was 2210 ng·h/mL.

And the Cmax ([1]; formula #3, 8 h after high-fat meal, mean (n = 16), read-out: Cmax)?
The Cmax was 2520 ng/mL.

What about the Tmax [1, 10] of the same compound?
Its Tmax is 0.38 h.

And the half-life [1, 10]?
Its half-life is 8.17 h.

What about the AUC(0-inf) ([1]; formula #3, fasted, mean (n = 16), read-out: AUC0-∞) of the same compound?
The AUC(0-inf) was 2160 ng·h/mL.

What about the Cmax ([1]; formula #3, fasted, mean (n = 16), read-out: Cmax) of the same compound?
The Cmax was 2320 ng/mL.

And the “AUC0-∞ Ratio” value [2, 11]?
The value was 0.981.

And the “Cmax Ratio” value [2, 11]?
The value was 1.052.

And the AUC(0-inf) ([2]; other: nasopharyngeal gastric tube (NG tube), Nasopharyngeal gastric tube, analysis of variance, read-out: AUC0-∞ Least-square mean)?
The AUC(0-inf) was 2500 ng·h/mL.

And the Cmax ([2]; other: nasopharyngeal gastric tube (NG tube), Nasopharyngeal gastric tube, analysis of variance, read-out: Cmax Least-square mean)?
Its Cmax is 2430 ng/mL.

What about the AUC(0-inf) ([2]; other: nasopharyngeal gastric tube (NG tube), formula #3 (105 mg), Nasopharyngeal gastric tube, fasted (N = 36), mean, read-out: AUC0-∞) of the same compound?
Its AUC(0-inf) is 2620 ng·h/mL.

What about the Cmax ([2]; other: nasopharyngeal gastric tube (NG tube), formula #3 (105 mg), Nasopharyngeal gastric tube, fasted (N = 36), mean, read-out: Cmax) of the same compound?
Its Cmax is 2780 ng/mL.

And the AUC [2, 12]?
Its AUC is 2590 ng·h/mL.

And the half-life [2, 12]?
The half-life was 13.5 h.

And the Tmax ([2]; other: nasopharyngeal gastric tube (NG tube), formula #3 (105 mg), Nasopharyngeal gastric tube, fasted (N = 36))?
Its Tmax is 0.25 h.

What about the AUC(0-inf) ([2]; po, Oral, analysis of variance, read-out: AUC0-∞ Least-square mean) of the same compound?
The AUC(0-inf) was 2550 ng·h/mL.

What about the Cmax ([2]; po, Oral, analysis of variance, read-out: Cmax Least-square mean) of the same compound?
Its Cmax is 2310 ng/mL.

What about the AUC(0-inf) ([2]; po, formula #3 (105 mg), Oral, fasted (N = 36), mean, read-out: AUC0-∞) of the same compound?
The AUC(0-inf) was 2660 ng·h/mL.

And the Cmax ([2]; po, formula #3 (105 mg), Oral, fasted (N = 36), mean, read-out: Cmax)?
Its Cmax is 2470 ng/mL.

And the AUC [2, 13]?
Its AUC is 2610 ng·h/mL.

And the half-life [2, 13]?
Its half-life is 21.5 h.

And the Tmax ([2]; formula #3 (105 mg), Oral, fasted (N = 36))?
Its Tmax is 0.5 h.
